Assay [1] has as its target T1, cellular IDO1 in HeLa cells (Homo sapiens, UniProt P14902).
T1 construct: endogenous in cells; host or cells: HeLa (ATCC), induced with human recombinant IFN-γ
The assay can be described thus: HeLa cell-based IDO1 Kyn (kynurenine) production assay. To be noted: IDO1 induced by IFN-γ, 48 hours, read-out: cell-based EC50 value (IDO1 expressed Hela cells). As to the method:
HeLa Cell-Based IDO1 Kyn (Kynurenine) Production Assay:
The inhibitory activity of IDO1 inhibitors is determined by using a colorimetric reaction to measure Kyn generated from L-Trp (L-Tryptophon) oxidation by cellular IDO1 in HeLa cells after induction of IDO1 expression by IFN-γ.
Hela cells were obtained from the American Type Culture Collection and recovered in 10% FBS-containing phenol red-free DMEM medium. Cells were plated onto a 96-well plate (100 μl/well) at 8000 cells per well and kept at 37° C. in a humidified incubator supplied with 5% CO2 4 hours later, Human recombinant IFN-γ (8901SC, CST) was added to cells (final concentration 100 ng/mL) to stimulate endogenous IDO11. Compounds at different concentrations diluted in dimethylsulfoxide (DMSO) were added simultaneously with IFN-γ and 0.4 mM L-Trp. Cells were kept at 37° C. in a humidified incubator supplied with 5% CO2. After 48 hours of incubation, 100 μl supernatant from each well was removed to a new plate. The protein in the medium was precipitated with the addition of 8 μl 6N trichloroacetic acid. The plate was incubated at 60° C. for 30 minutes and then centrifugation at 2500 rpm for 10 minutes to remove sediments. […] The absorbance at 480 nm wavelength derived from Kyn was measured using a PHERAstar FS plate reader (BMG LABTECH). […]

In assay [2] the target is T2, TDO2 in 293-TDO2 cells (Homo sapiens, UniProt P48775).
T2 construct: expressed in transfected cells; host or cells: HEK293 (ATCC), stably transfected
T2 sequence (P48775 whole entry): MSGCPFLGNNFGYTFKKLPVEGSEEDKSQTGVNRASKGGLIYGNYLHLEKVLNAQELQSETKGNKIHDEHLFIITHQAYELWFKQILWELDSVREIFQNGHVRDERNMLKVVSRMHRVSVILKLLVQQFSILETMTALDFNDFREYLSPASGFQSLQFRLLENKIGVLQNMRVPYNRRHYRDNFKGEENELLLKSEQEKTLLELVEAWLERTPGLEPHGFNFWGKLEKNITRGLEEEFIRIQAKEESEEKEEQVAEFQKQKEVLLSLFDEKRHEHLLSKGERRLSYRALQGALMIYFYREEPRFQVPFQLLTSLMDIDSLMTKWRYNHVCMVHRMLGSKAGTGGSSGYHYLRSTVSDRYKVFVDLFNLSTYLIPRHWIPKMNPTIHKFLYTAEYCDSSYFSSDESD
Briefly: 293-TDO2 cell-based TDO2 Kyn (kynurenine) production assay. In outline: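 HEK293 cells stably transfected to express tryptophan 2,3-dioxygenase were seeded at 10000 per well in 96-well plates in phenol red-free DMEM with 10% FBS. After 4 hours, DMSO-diluted compound dilutions were added, and cells were kept 48 hours at 37 °C, 5% CO2. Supernatant was deproteinised with trichloroacetic acid, and kynurenine was measured at 480 nm after adding 2% 4-(dimethylamino)benzaldehyde. Potency came from four-parameter logistic fits in XLfit.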

Assay [3] addresses T3, TDO (Homo sapiens, UniProt P48775).
T3 construct: His tag (C); made in house; host or cells: E. coli
The assay can be described thus: TDO enzymatic assay. It is filed as biochemical. To be noted: read-out: Enzyme IC50 TDO. In outline:
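Recombinant C-terminally His-tagged TDO purified from E. coli (100 nM) was tested with 0.5 mM L-tryptophan (Km concentration). Otherwise the IDO1 enzymatic set-up was used: ascorbic acid, methylene blue, catalase, and potassium phosphate pH 7.5 with BSA, incubated 1.5 hours. N'-formylkynurenine absorbance was read continuously at 321 nm, and activity was taken as the slope. IC50 was calculated from remaining enzyme activity across increasing compound concentrations.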

Assay [4] concerns the target T4, IDO1 (Homo sapiens, UniProt P14902). Briefly: Hela cell-based IDO1 assay. To be noted: Hela cells. In short, it runs like this: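 Kynurenine was measured at 480 nm in trichloroacetic acid-deproteinised supernatant after adding 2% 4-(dimethylamino)benzaldehyde. This supernatant came from HeLa cells seeded at 8000 per well in 96-well plates in phenol red-free DMEM with 10% FBS and, from 4 hours after seeding, exposed for 48 hours at 37 °C, 5% CO2 to DMSO-diluted compound dilutions, IFN-γ (final 100 ng/mL) and 0.4 mM L-Trp. The resulting data were fitted with a four-parameter logistic model in XLfit. Potency was taken from those fits.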

Assay [5] concerns the target T5, cellular TDO2 in HEK293-TDO2 cells (Homo sapiens, UniProt P48775).
T5 construct: expressed in transfected cells; host or cells: HEK293 (ATCC), stably transfected
Briefly: 293-TDO2 cell-based assay (Kyn colorimetric). To be noted: 48 hours of incubation. In outline: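 HEK293 cells stably expressing TDO2 (10000/well, phenol red-free DMEM, 10% FBS) were dosed 4 h after plating and incubated 48 h at 37° C. Supernatant Kyn was measured after TCA precipitation by 4-(dimethylamino)benzaldehyde colour at 480 nm. IC50 came from four-parameter logistic fits.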

In assay [6] the target is T4, IDO1. The assay can be described thus: IDO1 enzymatic assay. Also on record: His tag (N); made in house; host or cells: E. coli. It is filed as biochemical. To be noted: recombinant IDO1, 1.3 mM D-tryptophan. How it is done: Recombinant IDO1 was overexpressed and purified from E. coli cells with an N-terminal His tag. IDO1 enzymatic assay was carried out using a methodology similar to described in the literature (J. Biol. Chem. (1980), 255, 1339-1345.). The reaction mixture contains 50 nM IDO1, 1.3 mM D-tryptophan, 5 mM L-ascorbic acid, […] methylene Blue, 0.4 mg/mL catalase and compound (or DMSO) in a buffer containing 50 mM potassium phosphate pH 7.5 and 0.1% BSA. After incubation at 24′C for 1.5 hours, absorbance of the reaction mixture was continuously read at 321 nm to monitor the formation of N′-formylkynurenine by a FULOstar OMEGA plate reader (BMG LABTECH) for 1 hour. The enzymatic activity was determined by measuring the slope of the linear absorbance increase as a function of time. The IC50s are calculated based on remaining enzyme activity in the presence of increasing concentrations of compounds.

In assay [7] the target is T4, IDO1. The assay can be described thus: IDO1 enzymatic assay. It is filed as biochemical. To be noted: read-out: Enzyme IC50 IDO1. Also on record: His tag (N); made in house; host or cells: E. coli. In short, it runs like this: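 IC50 values reflect remaining IDO1 activity over increasing compound concentrations. The enzyme (50 nM, N-terminally His-tagged, purified from E. coli) was incubated for 1.5 hours at 24 °C with compound, 1.3 mM D-tryptophan, 5 mM L-ascorbic acid, methylene blue and 0.4 mg/mL catalase in 50 mM potassium phosphate pH 7.5 with 0.1% BSA. The slope of N'-formylkynurenine formation, read continuously at 321 nm for 1 hour, served as activity.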

Read-outs that look alike come from different tables or passages of the source.

T4 sequence (P14902 whole entry): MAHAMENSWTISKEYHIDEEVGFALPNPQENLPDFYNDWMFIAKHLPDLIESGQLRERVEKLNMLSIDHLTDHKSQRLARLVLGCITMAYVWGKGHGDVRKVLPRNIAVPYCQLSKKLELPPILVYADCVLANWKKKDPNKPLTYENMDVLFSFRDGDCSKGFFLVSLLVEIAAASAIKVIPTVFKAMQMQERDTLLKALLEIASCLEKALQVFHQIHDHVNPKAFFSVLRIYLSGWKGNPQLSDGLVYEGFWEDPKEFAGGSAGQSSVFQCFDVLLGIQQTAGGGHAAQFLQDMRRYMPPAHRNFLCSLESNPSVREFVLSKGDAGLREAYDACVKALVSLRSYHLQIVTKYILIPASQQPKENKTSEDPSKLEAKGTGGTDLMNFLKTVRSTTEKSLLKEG
T3 sequence (P48775 whole entry): as the sequence (P48775 whole entry) above
T5 sequence (P48775 whole entry): as above
T1 sequence (P14902 whole entry): as the sequence (P14902 whole entry) above

With `OC(c1c(C2CC2)ccc2cncn12)[C@H]1CC[C@H](c2ccc(Cl)cc2)CC1` (single isomer, unassigned) [Example D103c], the EC50 – broadly, the concentration that produces a half-maximal response – in assay [1] is 130 nM; in assay [2], over 10000 nM; in assay [4] it was 131 nM; in assay [5], over 10000 nM. Further, the concentration for half-maximal inhibition (IC50) (commonly the concentration that gives 50% inhibition) in assay [3] worked out at 8100 nM; in assay [6] it was 22 nM; in assay [7], 22 nM.
Turning to `OC(c1c(C2CC2)ccc2cncn12)[C@H]1CC[C@@H](c2ccc(Cl)cc2)CC1` (single isomer, unassigned) [Example D103d], the EC50 in assay [1] and in assay [2] was over 10000 nM each time. The IC50 in assay [6] and in assay [7] was 67 nM each time.
`CC(=O)c1ccc([C@H]2CC[C@H]([C@H](O)c3c(C4CC4)ccn4cncc34)CC2)cc1` [Example C125, 1-(4-((1 S,4r)-4-((S)-(7-cyclopropylimidazo[1,5-a]pyridin-8-yl)(hydroxy)methyl)cyclohexyl)phenyl)ethan-1-one]: the IC50 in assay [3] is 6100 nM; in assay [7], 41 nM. The EC50 in assay [4] is 915 nM; in assay [5], over 10000 nM.
Consider `Cn1cc(-c2ccc(N3CCC(C(O)c4c(C5CC5)ccn5cncc45)CC3)cc2)cn1` (stereo not drawn) [Example C152, (7-cyclopropylimidazo[1,5-a]pyridin-8-yl)(1-(4-(1-methyl-1H-pyrazol-4-yl)phenyl)piperidin-4-yl)methanol], for which the results for the IC50 in assay [3] and in assay [7] were 3300 nM and 29 nM, respectively. The concentration giving a half-maximal response (EC50) is 520 nM in assay [4] and over 10000 nM in assay [5].
Turning to `OCCn1cc(-c2ccc(N3CCC(C(O)c4c(C5CC5)ccn5cncc45)CC3)cc2)cn1` (stereo not drawn) [Example C153, 2-(4-(4-(4-((7-cyclopropylimidazo[1,5-a]pyridin-8-yl)(hydroxy)methyl)piperidin-1-yl)phenyl)-1H-pyrazol-1-yl)ethan-1-ol], the half-inhibitory concentration (IC50) in assay [3] was found to be 6700 nM; in assay [7], 47 nM. Also, the values for the half-maximal effective concentration (EC50) in assay [4] and in assay [5] were 1050 nM and over 10000 nM, respectively.
`O[C@@H](c1c(C2CC2)ccc2cncn12)[C@H]1CC[C@@H](c2ccc(OC3CCOCC3)cc2)CC1` [Example D114a, (R)-(6-cyclopropylimidazo[1,5-a]pyridin-5-yl)((1 s,4S)-4-(4-((tetrahydro-2H-pyran-4-yl)oxy)phenyl)cyclohexyl)methanol]: the results for the IC50 in assay [3] and in assay [7] were 1700 nM and 17 nM, respectively. Moreover, the EC50 in assay [4] is 572 nM; in assay [5] it was over 10000 nM.

For the origin of these results see patent US10882856B2 (BeiGene, Ltd., priority 2017, dated 2021).
